How the values were obtained:
Italian ryegrass [1] = test: Test Example 4: herbicidal effect by soil treatment (Table 19, symbol K); assay type: in vivo, Italian ryegrass (Lolium multiflorum); details: amount of applied herbicide 320 g/ha
Outline: (§1)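 Emulsion of test compound, water-diluted to predetermined amount, sprayed on soil after sowing (seed depth ~1.5 cm, sterilized diluvial soil). Greenhouse, 25–30° C. Effect graded at three weeks post-spray.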

Japanese bulrush = test: Test Example 2: herbicidal activity, application during weed generation under submerged conditions (Table 17, symbol B); assay type: in vivo, Japanese bulrush (Schoenoplectus juncoides); details: AAH 320 g/ha; application during weed generation, submerged conditions
Outline: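 Herbicide emulsion, diluted with water to the chosen amount, is applied onto 4 cm floodwater over alluvial soil where the weeds were co-sown and raised at 25–30° C. Application timing: 1–2 leaves. Assessment: three weeks afterwards.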

Italian ryegrass [2] = test: Test Example 5: herbicidal effect by foliage application, plastic box (Table 20, symbol K); assay type: in vivo, Italian ryegrass (Lolium multiflorum); details: foliage application, 320 g/ha, three weeks after application
Outline: (§2)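 Post-emergence foliar test in sterilized diluvial soil. Compound applied as water-diluted emulsion at a predetermined rate to 14-day-old plants; evaluation at three weeks.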

lambsquarters = test: Test Example 4: herbicidal effect by soil treatment (Table 19, symbol O); assay type: in vivo, lambsquarters (Chenopodium album); details: amount of applied herbicide 320 g/ha
Outline: as §1

velvetleaf [3] = test: Test Example 5: herbicidal effect by foliage application, plastic box (Table 20, symbol M); assay type: in vivo, velvetleaf (Abutilon theophrasti); details: foliage application, 320 g/ha, three weeks after application
Outline: as §2

oval-leafed pondweed = test: Test Example 1: herbicidal activity, application before weed generation under submerged conditions (Table 16, symbol C); assay type: in vivo, oval-leafed pondweed (Monochoria vaginalis); details: amount of applied herbicide 320 g/ha
Outline: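 Submerged Wagner pots (alluvial soil, 4 cm water) sown with weed seeds and planted with 2.5-leaf rice seedlings; emulsifiable concentrate diluted in water applied to water surface on sowing day. Held in greenhouse at 25-30 °C; injury scored 0-5 by herbicidal rate after three weeks.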

green foxtail = test: Test Example 4: herbicidal effect by soil treatment (Table 19, symbol G); assay type: in vivo, green foxtail (Setaria viridis); details: amount of applied herbicide 320 g/ha
Outline: as §1

velvetleaf [4] = test: Test Example 4: herbicidal effect by soil treatment (Table 19, symbol M); assay type: in vivo, velvetleaf (Abutilon theophrasti); details: amount of applied herbicide 320 g/ha
Outline: as §1

wild oat = test: Test Example 4: herbicidal effect by soil treatment (Table 19, symbol I); assay type: in vivo, wild oat (Avena fatua); details: amount of applied herbicide 320 g/ha
Outline: as §1

barnyard grass = test: Test Example 5: herbicidal effect by foliage application, plastic box (Table 20, symbol H); assay type: in vivo, barnyard grass (Echinochloa crus-galli); details: foliage application, 320 g/ha, three weeks after application
Outline: as §2

rice flat sedge = test: Test Example 3: herbicidal effect by foliage application, Wagner pot (Table 18, symbol E); assay type: in vivo, rice flat sedge (Cyperus iria); details: 320 g/ha
Outline: (§3)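 Plants were sown in alluvial soil held under 0.1–0.5 cm standing water and grown 14 days in a greenhouse at 25–30 °C. An emulsifiable formulation, water-diluted to the set dose, was then sprayed onto the foliage, and effects were scored three weeks later using previously defined criteria.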

Chinese sprangletop = test: Test Example 3: herbicidal effect by foliage application, Wagner pot (Table 18, symbol D); assay type: in vivo, chinese sprangletop (Leptochloa chinensis); details: 320 g/ha
Outline: as §3

persian speedwell = test: Test Example 4: herbicidal effect by soil treatment (Table 19, symbol R); assay type: in vivo, Persian speedwell (Veronica persica); details: amount of applied herbicide 320 g/ha
Outline: as §1

redroot pigweed = test: Test Example 4: herbicidal effect by soil treatment (Table 19, symbol N); assay type: in vivo, redroot pigweed (Amaranthus retroflexus); details: amount of applied herbicide 320 g/ha
Outline: as §1

blackgrass = test: Test Example 5: herbicidal effect by foliage application, plastic box (Table 20, symbol J); assay type: in vivo, blackgrass (Alopecurus myosuroides); details: foliage application, 320 g/ha, three weeks after application
Outline: as §2

chickweed = test: Test Example 5: herbicidal effect by foliage application, plastic box (Table 20, symbol P); assay type: in vivo, common chickweed (Stellaria media); details: foliage application, 320 g/ha, three weeks after application
Outline: as §2

windgrass = test: Test Example 4: herbicidal effect by soil treatment (Table 19, symbol L); assay type: in vivo, windgrass (Apera spica-venti); details: amount of applied herbicide 320 g/ha
Outline: as §1

COc1cc(F)ccc1-c1sc2cc(Cl)ccc2c1-c1c(O)c(C)nn(C)c1=O [3-043]
K: Italian ryegrass, herbicidal effect grade (Italian ryegrass [1]): 1 (Herbicidal rate of 5% or more and less than 20%) | herbicidal effect rating, B: Japanese bulrush (Japanese bulrush): 0 (Herbicidal rate of 5% or less (almost no effect)) | K: Italian ryegrass, herbicidal effect grade (Italian ryegrass [2]): 2 (Herbicidal rate of 20% or more and less than 40%) | O: lambsquarters, herbicidal effect grade (lambsquarters): 5 (Herbicidal rate of 90% or more (almost completely withered)) | M: velvetleaf, herbicidal effect grade (velvetleaf [3]): 5 (Herbicidal rate of 90% or more (almost completely withered)) | Herbicidal effect, C: oval-leafed pondweed (oval-leafed pondweed): 2 (Herbicidal rate of 20% or more and less than 40%) | G: green foxtail, herbicidal effect grade (green foxtail): 4 (Herbicidal rate of 70% or more and less than 90%) | M: velvetleaf, herbicidal effect grade (velvetleaf [4]): 3 (Herbicidal rate of 40% or more and less than 70%) | I: wild oat, herbicidal effect grade (wild oat): 0 (Herbicidal rate of 5% or less (almost no effect)) | H: barnyard grass, herbicidal effect grade (barnyard grass): 4 (Herbicidal rate of 70% or more and less than 90%) | herbicidal effect on rice flat sedge (E) (rice flat sedge): 5 (Herbicidal rate of 90% or more (almost completely withered)) | herbicidal effect on Chinese sprangletop (D) (Chinese sprangletop): 3 (Herbicidal rate of 40% or more and less than 70%) | R: persian speedwell, herbicidal effect grade (persian speedwell): 3 (Herbicidal rate of 40% or more and less than 70%) | N: redroot pigweed, herbicidal effect grade (redroot pigweed): 4 (Herbicidal rate of 70% or more and less than 90%) | J: blackgrass, herbicidal effect grade (blackgrass): 5 (Herbicidal rate of 90% or more (almost completely withered)) | P: chickweed, herbicidal effect grade (chickweed): 5 (Herbicidal rate of 90% or more (almost completely withered))

CCOc1cc(F)ccc1-c1sc2cc(Cl)ccc2c1-c1c(O)c(C)nn(C)c1=O [3-045]
K: Italian ryegrass, herbicidal effect grade (Italian ryegrass [1]): 0 (Herbicidal rate of 5% or less (almost no effect)) | herbicidal effect rating, B: Japanese bulrush (Japanese bulrush): 2 (Herbicidal rate of 20% or more and less than 40%) | K: Italian ryegrass, herbicidal effect grade (Italian ryegrass [2]): 0 (Herbicidal rate of 5% or less (almost no effect)) | O: lambsquarters, herbicidal effect grade (lambsquarters): 4 (Herbicidal rate of 70% or more and less than 90%) | M: velvetleaf, herbicidal effect grade (velvetleaf [3]): 5 (Herbicidal rate of 90% or more (almost completely withered)) | Herbicidal effect, C: oval-leafed pondweed (oval-leafed pondweed): 0 (Herbicidal rate of 5% or less (almost no effect)) | G: green foxtail, herbicidal effect grade (green foxtail): 4 (Herbicidal rate of 70% or more and less than 90%) | M: velvetleaf, herbicidal effect grade (velvetleaf [4]): 2 (Herbicidal rate of 20% or more and less than 40%) | I: wild oat, herbicidal effect grade (wild oat): 0 (Herbicidal rate of 5% or less (almost no effect)) | H: barnyard grass, herbicidal effect grade (barnyard grass): 5 (Herbicidal rate of 90% or more (almost completely withered)) | herbicidal effect on rice flat sedge (E) (rice flat sedge): 5 (Herbicidal rate of 90% or more (almost completely withered)) | herbicidal effect on Chinese sprangletop (D) (Chinese sprangletop): 4 (Herbicidal rate of 70% or more and less than 90%) | R: persian speedwell, herbicidal effect grade (persian speedwell): 3 (Herbicidal rate of 40% or more and less than 70%) | N: redroot pigweed, herbicidal effect grade (redroot pigweed): 3 (Herbicidal rate of 40% or more and less than 70%) | J: blackgrass, herbicidal effect grade (blackgrass): 4 (Herbicidal rate of 70% or more and less than 90%) | P: chickweed, herbicidal effect grade (chickweed): 5 (Herbicidal rate of 90% or more (almost completely withered))

CCCOc1ccc2c(-c3c(O)c(C)nn(C)c3=O)c(-c3ccccc3OC)sc2c1 [3-099]
K: Italian ryegrass, herbicidal effect grade (Italian ryegrass [1]): 5 (Herbicidal rate of 90% or more (almost completely withered)) | herbicidal effect rating, B: Japanese bulrush (Japanese bulrush): 4 (Herbicidal rate of 70% or more and less than 90%) | K: Italian ryegrass, herbicidal effect grade (Italian ryegrass [2]): 5 (Herbicidal rate of 90% or more (almost completely withered)) | O: lambsquarters, herbicidal effect grade (lambsquarters): 5 (Herbicidal rate of 90% or more (almost completely withered)) | M: velvetleaf, herbicidal effect grade (velvetleaf [3]): 5 (Herbicidal rate of 90% or more (almost completely withered)) | Herbicidal effect, C: oval-leafed pondweed (oval-leafed pondweed): 5 (Herbicidal rate of 90% or more (almost completely withered)) | G: green foxtail, herbicidal effect grade (green foxtail): 5 (Herbicidal rate of 90% or more (almost completely withered)) | M: velvetleaf, herbicidal effect grade (velvetleaf [4]): 3 (Herbicidal rate of 40% or more and less than 70%) | I: wild oat, herbicidal effect grade (wild oat): 0 (Herbicidal rate of 5% or less (almost no effect)) | H: barnyard grass, herbicidal effect grade (barnyard grass): 5 (Herbicidal rate of 90% or more (almost completely withered)) | herbicidal effect on rice flat sedge (E) (rice flat sedge): 5 (Herbicidal rate of 90% or more (almost completely withered)) | herbicidal effect on Chinese sprangletop (D) (Chinese sprangletop): 5 (Herbicidal rate of 90% or more (almost completely withered)) | R: persian speedwell, herbicidal effect grade (persian speedwell): 4 (Herbicidal rate of 70% or more and less than 90%) | N: redroot pigweed, herbicidal effect grade (redroot pigweed): 5 (Herbicidal rate of 90% or more (almost completely withered)) | J: blackgrass, herbicidal effect grade (blackgrass): 5 (Herbicidal rate of 90% or more (almost completely withered)) | P: chickweed, herbicidal effect grade (chickweed): 5 (Herbicidal rate of 90% or more (almost completely withered))

COc1ccccc1-c1sc2cc(OCC3CCCO3)ccc2c1-c1c(O)c(C)nn(C)c1=O (stereo not shown) [3-133]
Herbicidal effect by soil treatment, K: Italian ryegrass (Italian ryegrass [1]): 5 (Herbicidal rate of 90% or more (almost completely withered)) | herbicidal effect rating, B: Japanese bulrush (Japanese bulrush): 3 (Herbicidal rate of 40% or more and less than 70%) | K: Italian ryegrass, herbicidal effect grade (Italian ryegrass [2]): 5 (Herbicidal rate of 90% or more (almost completely withered)) | Herbicidal effect by soil treatment, O: lambsquarters (lambsquarters): 5 (Herbicidal rate of 90% or more (almost completely withered)) | M: velvetleaf, herbicidal effect grade (velvetleaf [3]): 3 (Herbicidal rate of 40% or more and less than 70%) | Herbicidal effect, C: oval-leafed pondweed (oval-leafed pondweed): 4 (Herbicidal rate of 70% or more and less than 90%) | Herbicidal effect by soil treatment, G: green foxtail (green foxtail): 5 (Herbicidal rate of 90% or more (almost completely withered)) | Herbicidal effect by soil treatment, M: velvetleaf (velvetleaf [4]): 1 (Herbicidal rate of 5% or more and less than 20%) | Herbicidal effect by soil treatment, I: wild oat (wild oat): 1 (Herbicidal rate of 5% or more and less than 20%) | H: barnyard grass, herbicidal effect grade (barnyard grass): 3 (Herbicidal rate of 40% or more and less than 70%) | herbicidal effect on rice flat sedge (E) (rice flat sedge): 5 (Herbicidal rate of 90% or more (almost completely withered)) | herbicidal effect on Chinese sprangletop (D) (Chinese sprangletop): 3 (Herbicidal rate of 40% or more and less than 70%) | Herbicidal effect by soil treatment, N: redroot pigweed (redroot pigweed): 5 (Herbicidal rate of 90% or more (almost completely withered)) | J: blackgrass, herbicidal effect grade (blackgrass): 5 (Herbicidal rate of 90% or more (almost completely withered)) | Herbicidal effect by soil treatment, L: windgrass (windgrass): 5 (Herbicidal rate of 90% or more (almost completely withered)) | P: chickweed, herbicidal effect grade (chickweed): 5 (Herbicidal rate of 90% or more (almost completely withered))

Reference: patent US20230085307A1, “PYRIDAZINONE COMPOUND AND HERBICIDE” (NISSAN CHEMICAL CORPORATION, priority 2019, published 2023)
